{"source": "patent US20160030438A1", "about": "“ANTI-TUMORAL COMPOSITION COMPRISING A PI3KBETA INHIBITOR AND A RAF INHIBITOR, TO OVERCOME CANCER CELLS RESISTANCE” (SANOFI, priority 2013, published 2016)", "key": {"PI3Kβ isoform": {"biological_target": "PI3Kβ isoform (Homo sapiens, UniProt P42338)", "sequence (P42338 whole entry, canonical isoform)": "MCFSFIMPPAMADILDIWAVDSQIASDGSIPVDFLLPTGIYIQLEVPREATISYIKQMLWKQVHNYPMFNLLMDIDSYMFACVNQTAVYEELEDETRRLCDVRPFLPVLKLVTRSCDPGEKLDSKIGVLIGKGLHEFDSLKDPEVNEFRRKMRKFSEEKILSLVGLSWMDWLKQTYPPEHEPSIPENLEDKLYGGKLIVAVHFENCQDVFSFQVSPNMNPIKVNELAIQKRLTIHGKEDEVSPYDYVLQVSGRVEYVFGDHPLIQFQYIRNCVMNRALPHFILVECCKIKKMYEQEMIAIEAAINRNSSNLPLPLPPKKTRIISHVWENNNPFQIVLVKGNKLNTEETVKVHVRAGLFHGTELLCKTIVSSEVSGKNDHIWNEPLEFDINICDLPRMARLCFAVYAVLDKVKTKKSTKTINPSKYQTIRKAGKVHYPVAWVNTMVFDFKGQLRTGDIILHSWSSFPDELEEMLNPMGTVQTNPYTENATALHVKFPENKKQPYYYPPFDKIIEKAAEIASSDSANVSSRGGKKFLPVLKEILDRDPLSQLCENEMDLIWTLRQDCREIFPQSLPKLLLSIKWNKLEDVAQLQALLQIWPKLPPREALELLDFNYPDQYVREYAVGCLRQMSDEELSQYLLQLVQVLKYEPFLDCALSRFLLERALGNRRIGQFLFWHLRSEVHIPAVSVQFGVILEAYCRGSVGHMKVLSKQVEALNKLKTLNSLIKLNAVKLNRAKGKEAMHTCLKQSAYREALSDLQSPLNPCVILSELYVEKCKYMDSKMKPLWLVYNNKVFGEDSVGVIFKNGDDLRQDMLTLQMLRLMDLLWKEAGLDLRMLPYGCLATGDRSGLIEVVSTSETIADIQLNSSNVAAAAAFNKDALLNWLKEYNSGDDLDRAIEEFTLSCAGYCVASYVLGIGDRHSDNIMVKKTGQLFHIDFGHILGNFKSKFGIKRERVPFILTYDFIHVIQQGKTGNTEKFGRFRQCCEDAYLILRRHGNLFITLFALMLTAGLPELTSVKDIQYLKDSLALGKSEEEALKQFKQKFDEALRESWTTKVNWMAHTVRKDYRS", "sequence (P27986 whole entry partner, canonical isoform)": "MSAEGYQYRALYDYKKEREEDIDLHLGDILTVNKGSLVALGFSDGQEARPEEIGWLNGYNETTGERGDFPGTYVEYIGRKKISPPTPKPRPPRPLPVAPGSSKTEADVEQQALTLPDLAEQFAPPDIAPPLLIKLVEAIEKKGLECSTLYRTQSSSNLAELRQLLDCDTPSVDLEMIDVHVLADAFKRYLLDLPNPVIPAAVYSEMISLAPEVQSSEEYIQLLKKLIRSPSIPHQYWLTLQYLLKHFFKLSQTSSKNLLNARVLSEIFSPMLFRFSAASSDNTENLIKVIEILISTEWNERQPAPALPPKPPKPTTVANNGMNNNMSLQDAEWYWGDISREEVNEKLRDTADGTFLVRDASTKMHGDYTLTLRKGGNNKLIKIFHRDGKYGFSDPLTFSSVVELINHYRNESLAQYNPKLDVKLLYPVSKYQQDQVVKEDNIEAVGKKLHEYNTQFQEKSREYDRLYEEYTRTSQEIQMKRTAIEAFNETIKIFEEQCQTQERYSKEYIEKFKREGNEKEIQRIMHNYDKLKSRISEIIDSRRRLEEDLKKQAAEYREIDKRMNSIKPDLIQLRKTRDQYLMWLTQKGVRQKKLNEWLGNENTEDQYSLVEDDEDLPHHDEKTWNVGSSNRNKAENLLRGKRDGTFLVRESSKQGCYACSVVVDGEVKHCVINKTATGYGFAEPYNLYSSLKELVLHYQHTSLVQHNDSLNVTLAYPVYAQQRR", "test": "PI3Kβ biochemical assay", "details": "biochemical assays"}, "PI3Kdelta [1]": {"biological_target": "T1, PI3Kdelta (Homo sapiens, UniProt O00329)", "test": "PI3Kdelta biochemical assay", "details": "biochemical assays"}, "PI3Kgamma [2]": {"biological_target": "PI3Kgamma (Homo sapiens, UniProt P48736)", "sequence (P48736 whole entry, species assumed)": "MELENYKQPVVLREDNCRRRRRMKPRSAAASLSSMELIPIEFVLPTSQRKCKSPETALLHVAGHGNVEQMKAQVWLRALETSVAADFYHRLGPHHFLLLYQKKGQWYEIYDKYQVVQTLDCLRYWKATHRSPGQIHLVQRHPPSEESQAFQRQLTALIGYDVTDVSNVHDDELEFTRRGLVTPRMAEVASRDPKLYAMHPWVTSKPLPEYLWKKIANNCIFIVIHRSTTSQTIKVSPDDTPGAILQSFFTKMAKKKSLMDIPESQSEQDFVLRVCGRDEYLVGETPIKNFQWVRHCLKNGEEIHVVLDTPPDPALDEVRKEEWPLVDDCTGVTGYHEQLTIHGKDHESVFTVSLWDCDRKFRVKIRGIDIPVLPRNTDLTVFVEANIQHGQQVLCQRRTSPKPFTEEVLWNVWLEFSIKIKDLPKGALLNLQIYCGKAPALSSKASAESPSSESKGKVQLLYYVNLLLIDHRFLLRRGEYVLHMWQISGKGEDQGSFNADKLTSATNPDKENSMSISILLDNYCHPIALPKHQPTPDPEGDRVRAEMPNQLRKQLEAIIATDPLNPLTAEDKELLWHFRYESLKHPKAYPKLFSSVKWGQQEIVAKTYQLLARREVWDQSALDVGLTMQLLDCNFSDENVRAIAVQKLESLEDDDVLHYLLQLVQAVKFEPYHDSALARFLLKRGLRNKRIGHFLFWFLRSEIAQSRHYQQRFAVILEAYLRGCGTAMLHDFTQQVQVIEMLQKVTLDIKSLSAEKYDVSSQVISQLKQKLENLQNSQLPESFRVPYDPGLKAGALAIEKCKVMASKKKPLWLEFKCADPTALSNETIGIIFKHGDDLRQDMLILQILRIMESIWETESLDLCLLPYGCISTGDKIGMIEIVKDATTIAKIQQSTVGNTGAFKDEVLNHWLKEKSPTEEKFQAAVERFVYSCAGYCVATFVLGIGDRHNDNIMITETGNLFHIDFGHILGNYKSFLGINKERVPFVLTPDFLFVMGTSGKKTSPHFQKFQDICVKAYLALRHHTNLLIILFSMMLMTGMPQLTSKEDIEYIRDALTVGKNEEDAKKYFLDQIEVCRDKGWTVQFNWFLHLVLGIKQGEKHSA", "test": "PI3Kgamma biochemical assay", "details": "biochemical assays"}, "mTOR": {"biological_target": "mTOR (Homo sapiens, UniProt P42345)", "test": "mTOR inhibition", "type": "biochemical", "details": "up to 10 μM"}, "VPS34 lipid kinase": {"biological_target": "VPS34 lipid kinase (Homo sapiens, UniProt Q8NEB9)", "sequence (Q8NEB9 whole entry)": "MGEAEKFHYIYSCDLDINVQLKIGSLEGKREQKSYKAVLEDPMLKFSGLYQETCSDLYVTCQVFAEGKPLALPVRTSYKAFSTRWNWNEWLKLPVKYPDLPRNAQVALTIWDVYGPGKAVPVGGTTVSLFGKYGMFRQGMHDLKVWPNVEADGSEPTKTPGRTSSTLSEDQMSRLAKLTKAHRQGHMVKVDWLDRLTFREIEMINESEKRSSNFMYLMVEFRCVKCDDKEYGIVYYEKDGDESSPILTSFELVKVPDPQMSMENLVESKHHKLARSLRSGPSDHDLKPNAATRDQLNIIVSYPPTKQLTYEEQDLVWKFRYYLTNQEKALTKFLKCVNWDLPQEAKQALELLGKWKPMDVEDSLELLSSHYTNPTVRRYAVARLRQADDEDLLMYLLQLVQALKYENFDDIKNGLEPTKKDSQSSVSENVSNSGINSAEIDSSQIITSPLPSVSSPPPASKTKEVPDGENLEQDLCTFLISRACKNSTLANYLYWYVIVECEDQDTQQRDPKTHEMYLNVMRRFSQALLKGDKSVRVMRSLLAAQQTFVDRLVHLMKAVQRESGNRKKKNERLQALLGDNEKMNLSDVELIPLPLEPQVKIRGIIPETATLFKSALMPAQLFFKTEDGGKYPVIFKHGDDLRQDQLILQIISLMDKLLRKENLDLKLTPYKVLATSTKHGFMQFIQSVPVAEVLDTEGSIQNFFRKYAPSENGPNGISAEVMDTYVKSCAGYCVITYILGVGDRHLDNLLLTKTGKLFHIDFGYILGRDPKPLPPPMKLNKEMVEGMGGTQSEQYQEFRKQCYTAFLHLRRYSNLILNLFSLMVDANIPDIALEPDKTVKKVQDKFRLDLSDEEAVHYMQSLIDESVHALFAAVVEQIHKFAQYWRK", "test": "Profiling against panel of more than 400 lipid and protein kinases (VPS34)", "details": "biochemical"}, "VPS34": {"biological_target": "VPS34 (Homo sapiens, UniProt Q8NEB9)", "sequence (Q8NEB9 whole entry, species assumed)": "as the sequence (Q8NEB9 whole entry) above", "test": "Functional VPS34 cellular assay", "type": "cell-based"}, "PI3Kβ": {"biological_target": "PI3Kβ (Homo sapiens, UniProt P42338)", "test": "Inhibition of AKT phosphorylation (pAkt-S473) in MEF-3T3-myr p110β mouse fibroblasts", "type": "cell-based", "details": "pAkt-S473, MEF-3T3-myr p110β; read-out: IC50 on PI3Kβ in the PI3Kβ-dependent cell line"}, "PI3Kdelta [3]": {"biological_target": "T1, PI3Kdelta", "test": "Inhibition of AKT phosphorylation (pAkt-S473) in MEF-3T3-myr p110δ mouse fibroblasts", "type": "cell-based", "details": "pAkt-S473, MEF-3T3-myr p110δ; read-out: IC50 on PI3Kdelta in cells"}, "PI3Kgamma [4]": {"biological_target": "T2, PI3Kgamma (Mus musculus, UniProt Q9JHG7)", "T2 construct": "RAW 264.7 mouse macrophages (after stimulation of AKT phosphorylation by C5a) for PI3Kgamma; endogenous in cells; host or cells: RAW 264.7 mouse macrophages", "T2 sequence (Q9JHG7 whole entry)": "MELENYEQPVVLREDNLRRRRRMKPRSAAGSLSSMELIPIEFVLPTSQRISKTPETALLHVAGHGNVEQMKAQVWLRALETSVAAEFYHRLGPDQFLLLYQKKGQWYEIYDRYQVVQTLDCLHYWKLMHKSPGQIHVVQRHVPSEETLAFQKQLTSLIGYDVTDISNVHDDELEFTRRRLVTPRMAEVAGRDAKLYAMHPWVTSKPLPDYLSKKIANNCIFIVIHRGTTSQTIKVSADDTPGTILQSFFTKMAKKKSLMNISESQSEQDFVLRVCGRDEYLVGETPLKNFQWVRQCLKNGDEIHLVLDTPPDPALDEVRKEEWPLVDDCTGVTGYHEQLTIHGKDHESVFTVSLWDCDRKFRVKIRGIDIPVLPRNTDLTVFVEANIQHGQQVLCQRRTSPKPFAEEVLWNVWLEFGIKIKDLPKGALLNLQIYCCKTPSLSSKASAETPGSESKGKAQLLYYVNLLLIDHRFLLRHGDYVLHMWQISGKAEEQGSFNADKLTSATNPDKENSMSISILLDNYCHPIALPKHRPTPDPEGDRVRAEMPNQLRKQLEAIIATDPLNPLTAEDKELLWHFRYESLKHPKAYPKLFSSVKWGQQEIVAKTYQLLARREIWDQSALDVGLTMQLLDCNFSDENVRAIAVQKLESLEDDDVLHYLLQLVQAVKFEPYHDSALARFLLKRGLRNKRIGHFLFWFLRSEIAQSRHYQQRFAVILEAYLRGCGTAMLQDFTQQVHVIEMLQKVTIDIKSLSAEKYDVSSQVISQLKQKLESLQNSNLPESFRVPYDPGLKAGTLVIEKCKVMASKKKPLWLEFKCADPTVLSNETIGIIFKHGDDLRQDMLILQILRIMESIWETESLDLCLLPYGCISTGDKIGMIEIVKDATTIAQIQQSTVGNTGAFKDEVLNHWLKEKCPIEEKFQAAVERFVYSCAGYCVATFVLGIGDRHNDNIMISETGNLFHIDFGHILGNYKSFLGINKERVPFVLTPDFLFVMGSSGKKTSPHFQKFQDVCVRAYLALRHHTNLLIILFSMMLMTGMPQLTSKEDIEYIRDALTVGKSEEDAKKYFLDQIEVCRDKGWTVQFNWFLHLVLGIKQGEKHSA", "test": "Inhibition of AKT phosphorylation (pAkt-S473) in RAW 264.7 mouse macrophages after C5a stimulation", "type": "cell-based", "details": "pAkt-S473, RAW 264.7, C5a; read-out: IC50 on PI3Kgamma in cells"}, "[5]": {"test_system": "ribosomal protein S6 phosphorylated on Ser240/244 (pS6) in A2058 cells", "test": "In vitro S6 phosphorylation inhibition (pS6 western blot) in A2058, example 8", "type": "cell-based, human", "details": "for inhibition at 0.1 µM: Homo sapiens", "description": "The inhibitory effect on ribosomal S6 protein phosphorylation by both compounds alone or in combination was characterized using western blotting method which allows investigating S6 phosphorylation by detecting the expression of ribosomal protein S6 phosphorylated on Ser240/244 position (pS6).\nThe human melanoma A2058 cell line was purchased at ATCC (Ref number CRL-11147 Batch 5074651). The A2058 cells were cultured in DMEM High glucose medium supplemented with 10% FBS and 2 mM L-Glutamine.\nCell treatment, Western Blot experiment and calculation of percentage of pS6 inhibition were performed according to the material and method described in example 7."}, "[6]": {"test_system": "human melanoma cell line WM-266-4", "test": "In vitro anti-proliferative activity (CelltiterGlo, ray design) in WM-266-4, example 1", "type": "cell-based", "description": "Prior to in vitro combination studies, the activity of individual agents was investigated using WM-266-4 cell line. The purpose of testing individual agents was to determine the independence of their action and to determine the dilution design of the Fixed Ratio Drug Combination assay.\nThe human melanoma WM-266-4 cell line was purchased at ATCC (Ref number CRL-1676 Batch 3272826). The WM-266-4 cells were cultured in RPMI1640 medium supplemented with 10% FBS and 2 mM L-Glutamine.\nThey were diluted serially, in DMSO following a 3 or 3.3-fold dilution step in order to obtain 10 mM to 0.03 μM solutions: then each solution was diluted 50-fold in culture medium containing 10% serum before being added onto cells with a 20-fold dilution factor. The final concentrations tested were defined by a Ray design which allows characterizing the interaction of the two compounds for several fixed proportions in the mixture. The ray design used for this experiment includes one ray for each single agent and 4 combination rays. All rays have 10 concentrations (see Table 1). The DMSO concentration was 0.1% in controls and in all treated wells.\nWM-266-4 cells were plated at 2500 cells/well in 96-well plates in appropriate culture medium and incubated for 6 hours at 37° C., 5% CO2. […] Cell growth was evaluated by measuring intracellular ATP using CelltiterGlo® reagent (Promega) according to the manufacturer's protocol. Briefly, CellTiterGlo® was added to each plate, incubated for 1 hour then luminescent signal was read on the MicroBeta Luminescent plate reader. Three experiments have been performed on the cell line. For each experiment, two 96-well plates are used allowing working with duplicates.\nInhibition of cell growth was estimated after treatment with one compound or the combination of compounds for four days and comparing the signal to cells treated with vehicle (DMSO).\nGrowth inhibition percentage (GI %) was calculated according to the following equation:\nGI %=100*(1−((X−BG)/(TC−BG)) […]"}, "BRAF mutated melanoma": {"test_system": "BRAF mutated melanoma", "details": "phase I trial; cited from earlier work"}}, "note": "Several values for one entry are separate records, joined by “and”; a condition that tells them apart may be missing. Equal values may be shown once.", "data": [{"smiles": "C[C@H]1Cc2ccccc2N1C(=O)Cc1nc(N2CCOCC2)cc(=O)[nH]1", "note": "[Compound (I), 2-{2-[(2S)-2-methyl-2,3-dihydro-1H-indol-1-yl]-2-oxoethyl}-6-(morpholin-4-yl)pyrimidin-4(3H)-one]", "values": [{"measurement": "IC50", "setting": "PI3Kβ isoform", "value": 65, "unit": "nM"}, {"measurement": "IC50", "setting": "PI3Kdelta [1]", "value": 465, "unit": "nM"}, {"measurement": "IC50", "setting": "PI3Kgamma [2]", "value": "> 10000", "unit": "nM"}, {"measurement": "mTOR inhibition", "setting": "mTOR", "value": "not inhibit mTOR"}, {"measurement": "IC50", "setting": "VPS34 lipid kinase", "value": 180, "unit": "nM"}, {"measurement": "IC50", "setting": "VPS34", "value": "> 10000", "unit": "nM"}, {"measurement": "IC50", "setting": "PI3Kβ", "value": 32, "unit": "nM"}, {"measurement": "IC50", "setting": "PI3Kdelta [3]", "value": 823, "unit": "nM"}, {"measurement": "IC50", "setting": "PI3Kgamma [4]", "value": "> 3000", "unit": "nM"}, {"measurement": "inhibition at 0.1 µM", "setting": "[5]; single agent 100 nM", "value": 8, "unit": "%"}, {"measurement": "pS6 signal (AU-BG)", "setting": "[5]; single agent 100 nM", "value": 27394341, "unit": "AU-BG"}, {"measurement": "Inhibition % of S6 phosphorylation", "setting": "[5]; single agent 1 000 nM", "value": 42, "unit": "%"}, {"measurement": "pS6 signal (AU-BG)", "setting": "[5]; single agent 1 000 nM", "value": 17416427, "unit": "AU-BG"}, {"measurement": "Inhibition % of S6 phosphorylation", "setting": "[5]; single agent 10 000 nM", "value": 73, "unit": "%"}, {"measurement": "pS6 signal (AU-BG)", "setting": "[5]; single agent 10 000 nM", "value": 8161752, "unit": "AU-BG"}]}, {"smiles": "CCCS(=O)(=O)Nc1ccc(F)c(C(=O)c2c[nH]c3ncc(-c4ccc(Cl)cc4)cc23)c1F", "note": "[Compound (II), 1-Propanesulfonamide,N-[3-[[5-(4-chlorophenyl)-1H-pyrrolo[2,3-b]pyridin-3-yl]carbonyl]-2,4-difluorophenyl]]", "values": [{"measurement": "IC50", "setting": "[6]; Homo sapiens, WM 266-4, approximately, read-out: IC50 with WM-266-4 sensitive cancer cells", "value": "~84", "unit": "nM"}, {"measurement": "Absolute IC40s", "setting": "[6]; single agent, WM-266-4, 96 hours, example 1", "value": "35 nM and 34.9 nM"}, {"measurement": "IC40, antiproliferative effect, WM-266-4", "setting": "[6]; single agent, approximately", "value": "~60", "unit": "nM"}, {"measurement": "inhibition at 0.1 µM", "setting": "[5]; single agent 100 nM", "value": 27, "unit": "%"}, {"measurement": "pS6 signal (AU-BG)", "setting": "[5]; single agent 100 nM", "value": 21830955, "unit": "AU-BG"}, {"measurement": "Inhibition % of S6 phosphorylation", "setting": "[5]; single agent 1 000 nM", "value": 40, "unit": "%"}, {"measurement": "pS6 signal (AU-BG)", "setting": "[5]; single agent 1 000 nM", "value": 17943024, "unit": "AU-BG"}, {"measurement": "Inhibition % of S6 phosphorylation", "setting": "[5]; single agent 10 000 nM", "value": 62, "unit": "%"}, {"measurement": "pS6 signal (AU-BG)", "setting": "[5]; single agent 10 000 nM", "value": 11383792, "unit": "AU-BG"}, {"measurement": "patients with at least 30% tumor shrinkage by RECIST", "setting": "BRAF mutated melanoma", "value": 81, "unit": "%"}]}]}
